# Laboratory results taken from PMC9994261 (Cell, 2023).
# Like-named read-outs stand apart in the source and are kept apart here.
# How the values were obtained:
# Mtb ribosome = format: biochemical, Mycobacterium tuberculosis; conditions: read-out: Inhibition of Mtb translation (IC50 μM)
# physchem [1] = test: physchem
# [2] = pH 2, 50% acetonitrile/water
# Mtb H37Rv LuxAB [3] = test: microbe, parasite or virus in culture; format: cell-based; conditions: Mycobacterium tuberculosis
# M. bovis BCG Pasteur = test: microbe, parasite or virus in culture; format: cell-based, Mycobacterium bovis
# Mtb Erdman = test: Mouse model of chronic TB; format: in vivo; conditions: 300 mg/kg oral once daily
# Mtb H37Rv [4] = test: Combination study in mouse model of TB; format: in vivo; conditions: 4 weeks
# [5] = format: in vitro ADME
# Mtb H37Rv [6] = format: cell-based, Mycobacterium tuberculosis; conditions: 7-day treatment
# RAW264.7 cells = format: in vitro ADME, murine; conditions: RAW macrophages, 10 μM
# Procedure: RAW264.7 cells were allowed to adhere in 96 wells plates for 4 hours before compounds were added at 10 μM. Intracellular concentrations were measured by LC-MS/MS after cellular lysis. For each point, up to 4 hours, the Intra/Extra cellular ratio was calculated. Points are the mean ± SD of four tests. Clarithromycin and Azithromycin were used as references.
# Mtb H37Rv LuxAB [7] = test: microbe, parasite or virus in culture; format: cell-based; conditions: Mycobacterium tuberculosis; remark: listed apart in the source
# [8] = format: in vitro ADME, human
# Procedure: The metabolic stability of test compounds was determined as described.[57]^,[58] Incubation and experimental conditions with human hepatic microsomal fractions (purchased from BD Gentest as a pooled batch from 6 donors) were as follows: microsomal proteins, 1 mg/mL; bovine serum albumin, 1 mg/mL; substrate, 5 μM; incubation duration, 20 min; cytochrome P-450 monooxygenases (CYPs) and flavin containing monooxygenases (FMOs) cofactor, 1 mM NADPH. Enzyme activity was stopped with 1 volume of acetonitrile. […] For each test compound and for each microsomal preparation, three incubations were prepared: absolute reference in buffer (without enzyme material, i.e., microsomes); incubation without NADPH cofactor (with microsomal fractions); and incubation with NADPH (with microsomal fractions). For most compounds, biotransformation, as observed in hepatic microsomal fractions in the presence of the NADPH cofactor, consists of oxidative reactions catalyzed by either CYPs or FMOs. In these conditions, the percentage of total metabolism, which corresponds to oxidative metabolism, was determined as follows: [% total metabolism] ≈ [% oxidative metabolism] = [unchanged compound (UC) peak area − NADPH UC peak area + NADPH] × 100%, where NADPH corresponds to the enzyme cofactor for oxidation reactions catalyzed by either CYP or FMO.
# Mtb H37Rv [9] = test: Mouse model of acute TB; format: in vivo; conditions: 4 weeks
# [10] = format: in vitro ADME; remark: listed apart in the source
# Mtb methylated ribosome = test: Mtb in vitro translation assay with methylated (erythromycin-treated) ribosome; format: biochemical, Mycobacterium tuberculosis; conditions: read-out: Translation inhibition of Mtb methylated ribosome (IC50 μM)
# Mtb H37Rv [11] = test: MIC80 after overnight pre-incubation of Mtb with subinhibitory macrolide; format: cell-based; conditions: Mycobacterium tuberculosis, read-out: MIC80
# Mtb H37Rv [12] = test: Mouse model of highly acute TB; format: in vivo
# [13] = tested on: GFP-expressing Mtb H37Rv in RAW264.7 macrophages; test: Intramacrophage assay (MIC for Mtb in macrophages); format: cell-based, Mycobacterium tuberculosis; conditions: Mycobacterium tuberculosis, H37RV
# in vitro = in vitro ADME; conditions: human, Caco-2; read-out: Permeability in Caco2 cells (Papp)
# physchem [14] = conditions: pH 7.4
# [15] = format: in vitro ADME; remark: listed apart in the source
# Mtb H37Rv [16] = test: microbe, parasite or virus in culture; format: cell-based, Mycobacterium tuberculosis
# [17] = mouse po 10 mg/kg, PEG200/Tween80/Citrate Buffer 100mM pH4 (70/5/25)
# [18] = mouse po 100 mg/kg, Lipidic formulation CremophorRH40/Capryol90/Mygliol812N (10/20/70) diluted in ½ water
# [19] = mouse po 100 mg/kg, PEG200/Tween80/Citrate Buffer 100mM pH4 (70/5/25)
# [20] = mouse po 300 mg/kg, PEG200/Tween80/Citrate Buffer 100mM pH4 (70/5/25)
structure (smiles),measurement,setting,value
CON=C1CC(C)OC(OC2C(C)CC(C)(OC(=O)NC(C)(C)CNS(=O)(=O)c3ccccc3)C(=O)C(C)C(OC(=O)CC(C)C)C(C)C(C(C)COC3OC(C)C(O)C(OC)C3OC)OC(=O)C(C)C(OC3CC(C)N(C)CC(C)O3)C2C)C1O (stereo not shown) [SEQ-9],IC50,Mtb ribosome,0.075 µM
same,pKa,physchem [1],8.3
same,Chemical stability: t/12@pH 2,[2],48 h
same,MIC,Mtb H37Rv LuxAB [3]; read-out: MIC (μM) for Mtb in liquid culture + 25% human serum,1.2 µM
same,MIC,Mtb H37Rv LuxAB [3]; read-out: MIC (μM) for Mtb in liquid culture + 25% mouse serum,2.1 µM
same,Growth inhibition (MIC80),M. bovis BCG Pasteur,0.56 µM
same,MIC80,"M. bovis BCG Pasteur; Mycobacterium tuberculosis variant bovis BCG, BCG, read-out: Growth inhibition (MIC80)",0.32 µM
same,MIC,"M. bovis BCG Pasteur; Mycobacterium tuberculosis variant bovis BCG, BCG, read-out: MIC in Pasteur M. bovis BCG",0.32 µM
same,log CFU reduction compared with pre-treatment CFU,Mtb Erdman,1.7 log CFU
same,Additional reduction of lung CFU compared with B or Pa alone,Mtb H37Rv [4]; SEQ-9 300 mg/kg added to B or Pa,approximately 1 log10 CFU
same,Additional reduction of lung CFU compared with L or Z alone,Mtb H37Rv [4]; SEQ-9 300 mg/kg added to L or Z,approximately 0.5 log units
same,Metabolic stability in rat liver microsomes (% metabolized compound after 20 min),[5],9%
same,log CFU reduction (in vitro bactericidal activity),Mtb H37Rv [6]; 30 μM,1.5 log CFU
same,log CFU reduction (in vitro bactericidal activity),Mtb H37Rv [6]; 60 μM,2.5 log CFU
same,Intra-macrophage ratio (intra versus extracellular concentration),RAW264.7 cells,~60 fold
same,MIC,Mtb H37Rv LuxAB [7]; read-out: MIC for Mtb under anaerobic conditions (LORA),0.6 µM
same,MBC,Mtb H37Rv LuxAB [7]; read-out: Minimal bactericidal concentration (MBC) for Mtb under anaerobic conditions (LORA),6.3 µM
same,Metabolic stability in human liver microsomes (% metabolized compound after 20 min),[8]; 20 min incubation,10%
same,"Metabolic stability in human liver microsomes (% metabolized compound after 20 min), (K)",[8]; in presence of ketoconazole CYP3A inhibitor (K),0(K) %
same,"Metabolic stability in human liver microsomes (% metabolized compound after 20 min), (Q)",[8]; in presence of quinidine CYP2D6 inhibitor (Q),/10(Q) %
same,Survival of infected mice,"Mtb H37Rv [9]; 37.5 to 300 mg/kg oral, 5 days per week, untreated controls died within 4 weeks",survived at all doses administered
same,"Minimum effective dose (MED), complete prevention of bacterial growth","Mtb H37Rv [9]; oral, methylcellulose-Tween formulation",300 mg/kg
same,Lung AUC0-24,[17],7.8 µg·h/mL
same,Lung Cmax,[17],790 ng/mL
same,Lung AUC0-24,[18],440 µg·h/mL
same,Lung Cmax,[18],31900 ng/mL
same,Lung AUC0-24,[19],190 µg·h/mL
same,Lung Cmax,[19],32900 ng/mL
same,Lung AUC0-24,[20],840 µg·h/mL
same,Lung Cmax,[20],252000 ng/mL
same,Higher plasma AUC compared with SEQ-372,same oral dose of 30 mg/kg in mouse,6 fold
same,Metabolic stability in mouse liver microsomes (% metabolized compound after 20 min),[10],8%
same,IC50,Mtb methylated ribosome,0.064 µM
same,MIC80,Mtb H37Rv [11]; Without induction,1 µM
same,MIC80,Mtb H37Rv [11]; overnight pre-incubation with SEQ-9 0.125µg/ml,1 µM
same,MIC80,Mtb H37Rv [11]; overnight pre-incubation with SEQ-9 0.25µg/ml,1 µM
same,MIC80,Mtb H37Rv [11]; overnight pre-incubation with clarithromycin 0.125µg/ml,1 µM
same,MIC80,Mtb H37Rv [11]; overnight pre-incubation with clarithromycin 0.25µg/ml,1 µM
same,Decrease in CFU,"Mtb H37Rv [12]; 100 mg/kg, lipid-based formulation",2 log10
same,Reduction of mean lung CFU,"Mtb H37Rv [12]; 300 mg/kg, after 2 weeks of treatment",1.42 log10
same,Minimum effective dose (MED),Mtb H37Rv [12]; lipid-based formulation,100 mg/kg
same,MIC,[13]; read-out: MIC (μM) for Mtb in macrophages,0.15 µM
same,MIC,[13]; read-out: MIC for Mtb tuberculosis in macrophages,0.11 µM
same,Papp,in vitro,1.5 ×10⁻⁶ cm/s
same,logD,physchem [14],3.4
same,Metabolic degradation/clearance from human liver microsomes,[15],0.03 mL/h/10^6 hepatocytes
same,MIC,"Mtb H37Rv [16]; Mycobacterium tuberculosis, ERDMAN / H37Rv, H37Rv/Erdman, read-out: MIC (μM) for Mtb in liquid culture",0.7 µM
same,MIC,"Mtb H37Rv [16]; Mycobacterium tuberculosis, H37RV, read-out: MIC for Mtb in liquid culture",0.7 µM
same,MIC,Mtb H37Rv [16]; read-out: MIC for Mtb in liquid culture,0.70 µM
